Laboratory results reported in patent US11149031B2, “Substituted N-(3-fluoropropyl)-pyrrolidine compounds, processes for their preparation and therapeutic uses thereof” (SANOFI, priority 2016, dated 2021).
Where two headings read alike, the source gives them in different places.

Experiments:
[1] = target: His6-ERα298-554 WT (ERα ligand-binding domain) (Homo sapiens (Human), UniProt P03372); experiment: Test A: biochemical antagonist activity, LanthaScreen TR-FRET ERα coactivator assay, WT; conditions: asterisk (*): protocol using 10 nM estradiol; read-out: Antagonism WT IC50
Chain of His6-ERα298-554 WT (ERα ligand-binding domain) (P03372 298-554): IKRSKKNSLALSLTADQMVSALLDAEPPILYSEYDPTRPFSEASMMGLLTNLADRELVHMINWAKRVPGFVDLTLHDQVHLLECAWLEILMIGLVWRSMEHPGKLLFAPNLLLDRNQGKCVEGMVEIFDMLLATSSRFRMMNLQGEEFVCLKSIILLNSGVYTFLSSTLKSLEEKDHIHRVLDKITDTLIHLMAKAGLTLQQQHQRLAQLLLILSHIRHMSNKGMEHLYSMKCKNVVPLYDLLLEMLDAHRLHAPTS
Procedure, shortened: (§1)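 IC50 values come from a 4-parameter logistic fit of the 520:495 nm TR-FRET ratio after overnight room-temperature incubation. The mix held 0.5 nM ERα 298–554 LBD, Tb-labelled anti-His6 antibody, 250 nM PGC1a peptide and 3 nM or 10 nM estradiol, pH 7.4 phosphate buffer with DTT.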

[2] = target: His6-ERα298-554 D538G mutant (ERα ligand-binding domain) (Homo sapiens (Human), UniProt P03372, D538G); experiment: Test A: biochemical antagonist activity, LanthaScreen TR-FRET ERα coactivator assay, D538G mutant; conditions: asterisk (*): protocol using 10 nM estradiol; read-out: Antagonism D538G IC50
Chain of His6-ERα298-554 D538G mutant (ERα ligand-binding domain) (P03372 298-554 D538G): as the sequence (P03372 298-554) above, with D241G counted along it
Procedure, shortened: as §1

[3] = target: His6-ERα298-554 Y537S mutant (ERα ligand-binding domain) (Homo sapiens (Human), UniProt P03372, Y537S); experiment: Test A: biochemical antagonist activity, LanthaScreen TR-FRET ERα coactivator assay, Y537S mutant; conditions: asterisk (*): protocol using 10 nM estradiol; read-out: Antagonism Y537S IC50
Chain of His6-ERα298-554 Y537S mutant (ERα ligand-binding domain) (P03372 298-554 Y537S): as the sequence (P03372 298-554) above, with Y240S counted along it
Procedure, shortened: as §1

[4] = system: MCF7 cells (breast tumor cells) WT; experiment: Test B: cell proliferation/viability assay (CellTiter-Glo) on MCF7 WT; format: cell-based; conditions: Homo sapiens, 7 days of compound exposure
Procedure, shortened: (§2)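 CellTiter-Glo luminescence after 7-day exposure; % viability = background-corrected RLU of sample relative to untreated. MCF7 WT or ER Tyr 537 Ser/Asp 538 Gly mutant-dependent lines, phenol red-free MEM, 5% charcoal-stripped FBS; 3-0.000001 μM, 9 points.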

[5] = system: MCF7 cells expressing mutant estrogen receptor Tyr 537 Ser; experiment: Test B: cell proliferation/viability assay (CellTiter-Glo) on MCF7 Tyr 537 Ser mutant; format: cell-based; conditions: Homo sapiens, MCF7 cells expressing ER Tyr 537 Ser mutant, 7 days of compound exposure, read-out: proliferation MCF7 Y537S IC50
Procedure, shortened: as §2

[6] = system: MCF7 cells expressing mutant estrogen receptor Asp 538 Gly; experiment: Test B: cell proliferation/viability assay (CellTiter-Glo) on MCF7 Asp 538 Gly mutant; format: cell-based; conditions: Homo sapiens, MCF7 cells expressing ER Asp 538 Gly mutant, 7 days of compound exposure, read-out: proliferation MCF7 D538G IC50
Procedure, shortened: as §2

[7] = target: ERα in MCF7 cells (Homo sapiens (Human), UniProt P03372); experiment: Test C: estrogen receptor degradation activity, ERα in cell western assay in MCF7 cells; format: cell-based; conditions: for DC50: 4 hours post compound addition, ERα in cell western, read-out: Degradation IC50; for % Degradation at 3 μM: 4 hours, relative to fulvestrant
Chain of ERα in MCF7 cells (P03372 whole entry): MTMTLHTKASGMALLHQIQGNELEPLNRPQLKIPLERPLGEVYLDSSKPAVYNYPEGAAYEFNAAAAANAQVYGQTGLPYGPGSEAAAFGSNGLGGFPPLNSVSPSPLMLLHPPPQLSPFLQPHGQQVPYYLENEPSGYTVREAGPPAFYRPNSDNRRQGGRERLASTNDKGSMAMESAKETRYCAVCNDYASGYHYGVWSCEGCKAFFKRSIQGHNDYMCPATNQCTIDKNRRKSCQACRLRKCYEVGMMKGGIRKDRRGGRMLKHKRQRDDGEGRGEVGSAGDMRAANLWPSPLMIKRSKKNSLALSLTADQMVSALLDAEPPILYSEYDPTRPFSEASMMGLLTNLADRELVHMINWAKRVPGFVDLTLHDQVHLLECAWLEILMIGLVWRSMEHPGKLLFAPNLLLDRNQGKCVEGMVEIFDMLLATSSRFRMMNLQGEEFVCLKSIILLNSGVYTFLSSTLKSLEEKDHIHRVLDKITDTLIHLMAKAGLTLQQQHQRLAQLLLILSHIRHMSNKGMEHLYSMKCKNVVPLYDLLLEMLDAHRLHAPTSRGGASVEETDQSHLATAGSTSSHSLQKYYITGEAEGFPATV
Procedure, shortened: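 In-cell western, MCF7, 4 h compound exposure, 3–0.000018 μM final, 9 points, 1:5 steps. Formalin/Triton fix, anti-ER rabbit mAb overnight cold, Alexa 488 secondary plus 2 μM Syto-64. Green intensity = ERα, red = DNA; no-primary wells as background.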

CCOc1ccc(C2=C(c3ccc(O[C@H]4CCN(CCCF)C4)cc3)c3ccc(O)cc3SC2)c(C)c1 [Example 39, 3-(4-ethoxy-2-methyl-phenyl)-4-[4-[(3S)-1-(3-fluoropropyl)pyrrolidin-3-yl]oxyphenyl]-2H-thiochromen-7-ol]
IC50 [1]: 9 nM | IC50 [2]: 221 nM | IC50 [3]: 127 nM | IC50 ([4]; MCF7, 168 h): 0.4 nM | IC50 ([5]; MCF7, 168 h): 2 nM | IC50 ([6]; MCF7, 168 h): 0.5 nM | DC50 [7]: 0.7 nM | % Degradation at 3 μM [7]: 86%

CCOc1cc(F)c(C2=C(c3ccc(O[C@H]4CCN(CCCF)C4)cc3)c3ccc(O)cc3SC2)cc1F [Example 40, 3-(4-ethoxy-2,5-difluoro-phenyl)-4-[4-[(3S)-1-(3-fluoropropyl)pyrrolidin-3-yl]oxyphenyl]-2H-thiochromen-7-ol]
IC50 [1]: 44 nM | IC50 [2]: 901 nM | IC50 [3]: 605 nM | IC50 ([4]; MCF7, 168 h): 1 nM | IC50 ([5]; MCF7, 168 h): 20 nM | IC50 ([6]; MCF7, 168 h): 2 nM | DC50 [7]: 0.2 nM | % Degradation at 3 μM [7]: 81%

CCOc1ccc(C2=C(c3ccc(O[C@H]4CCN(CCCF)C4)cc3)c3ccc(O)cc3SC2)c(F)c1F [Example 41, 3-(4-ethoxy-2,3-difluoro-phenyl)-4-[4-[(3S)-1-(3-fluoropropyl)pyrrolidin-3-yl]oxyphenyl]-2H-thiochromen-7-ol]
IC50 [1]: 27 nM | IC50 [2]: 740 nM | IC50 [3]: 407 nM | IC50 ([4]; MCF7, 168 h): 0.9 nM | IC50 ([5]; MCF7, 168 h): 4 nM | IC50 ([6]; MCF7, 168 h): 1 nM | DC50 [7]: 1 nM | % Degradation at 3 μM [7]: 85%

NS(=O)(=O)c1ccc(C2=C(c3ccc(O[C@H]4CCN(CCCF)C4)cc3)c3ccc(O)cc3SC2)cc1 [Example 42, 4-[4-[4-[(3S)-1-(3-fluoropropyl)pyrrolidin-3-yl]oxyphenyl]-7-hydroxy-2H-thiochromen-3-yl]benzenesulfonamide]
IC50 [1]: 674 nM | IC50 [2]: > 4000 nM | IC50 [3]: > 4000 nM | IC50 ([4]; MCF7, 168 h): 46 nM | IC50 ([5]; MCF7, 168 h): 809 nM | IC50 ([6]; MCF7, 168 h): 31 nM | DC50 [7]: 11 nM | % Degradation at 3 μM [7]: 89%

CCOc1cc(Cl)ccc1C1=C(c2ccc(O[C@H]3CCN(CCCF)C3)cc2)c2ccc(O)cc2SC1 [Example 43, 3-(4-chloro-2-ethoxy-phenyl)-4-[4-[(3S)-1-(3-fluoropropyl)pyrrolidin-3-yl]oxyphenyl]-2H-thiochromen-7-ol]
IC50 [1]: 96 nM | IC50 [2]: 1140 nM | IC50 [3]: 673 nM | IC50 ([4]; MCF7, 168 h): 0.4 nM | IC50 ([5]; MCF7, 168 h): 11 nM | IC50 ([6]; MCF7, 168 h): 1 nM | DC50 [7]: 0.8 nM | % Degradation at 3 μM [7]: 97%

Oc1ccc2c(c1)SCC(c1ccc(OC3COC3)cc1)=C2c1ccc(O[C@H]2CCN(CCCF)C2)cc1 [Example 44, 4-[4-[(3S)-1-(3-fluoropropyl)pyrrolidin-3-yl]oxyphenyl]-3-[4-(oxetan-3-yloxy)phenyl]-2H-thiochromen-7-ol]
IC50 [1]: 172 nM | IC50 [2]: 2930 nM | IC50 [3]: 1820 nM | IC50 ([4]; MCF7, 168 h): > 999 nM | IC50 ([5]; MCF7, 168 h): > 999 nM | IC50 ([6]; MCF7, 168 h): > 999 nM | DC50 [7]: 8 nM | % Degradation at 3 μM [7]: 89%

COc1ccc(C2=C(c3ccc(O[C@H]4CCN(CCCF)C4)cc3)c3ccc(O)cc3SC2)c(F)n1 [Example 45, 3-(2-fluoro-6-methoxy-3-pyridyl)-4-[4-[(3S)-1-(3-fluoropropyl)pyrrolidin-3-yl]oxyphenyl]-2H-thiochromen-7-ol]
IC50 [1]: 1 nM | IC50 [2]: 34 nM | IC50 [3]: 14 nM | IC50 ([4]; MCF7, 168 h): 0.1 nM | IC50 ([5]; MCF7, 168 h): 2 nM | IC50 ([6]; MCF7, 168 h): 0.6 nM | DC50 [7]: 0.2 nM | % Degradation at 3 μM [7]: 87%

Oc1ccc2c(c1)SCC(c1ccc(O)nc1F)=C2c1ccc(O[C@H]2CCN(CCCF)C2)cc1 [Example 46, 6-fluoro-5-[4-[4-[(3S)-1-(3-fluoropropyl)pyrrolidin-3-yl]oxyphenyl]-7-hydroxy-2H-thiochromen-3-yl]pyridin-2-ol]
IC50 [1]: 5 nM | IC50 [2]: 101 nM | IC50 [3]: 59 nM | IC50 ([4]; MCF7, 168 h): 0.1 nM | IC50 ([5]; MCF7, 168 h): 2 nM | IC50 ([6]; MCF7, 168 h): 0.5 nM | DC50 [7]: 0.2 nM | % Degradation at 3 μM [7]: 83%

Cc1ccc(C2=C(c3ccc(O[C@H]4CCN(CCCF)C4)cc3)c3ccc(OP(=O)(O)O)cc3SC2)c(F)c1 [Example 48, [3-(2-fluoro-4-methyl-phenyl)-4-[4-[(3S)-1-(3-fluoropropyl)pyrrolidin-3-yl]oxyphenyl]-2H-thiochromen-7-yl]dihydrogen phosphate]
IC50 [1]: > 4000 nM | IC50 [2]: > 4000 nM | IC50 [3]: > 4000 nM | IC50 ([4]; 168 h): 1 nM | IC50 ([5]; 168 h): 17 nM | IC50 ([6]; 168 h): 6 nM | DC50 [7]: 0.8 nM | % Degradation at 3 μM [7]: 89%

Oc1ccc2c(c1)SCC(c1ccc(F)nc1F)=C2c1ccc(O[C@H]2CCN(CCCF)C2)cc1 [Example 49, 3-(2,6-difluoro-3-pyridyl)-4-[4-[(3S)-1-(3-fluoropropyl)pyrrolidin-3-yl]oxyphenyl]-2H-thiochromen-7-ol]
IC50 [1]: 37 nM | IC50 [2]: 888 nM | IC50 [3]: 472 nM | IC50 ([4]; MCF7, 168 h): 0.3 nM | IC50 ([5]; MCF7, 168 h): 3 nM | IC50 ([6]; MCF7, 168 h): 0.9 nM | DC50 [7]: 0.2 nM | % Degradation at 3 μM [7]: 89%

Oc1ccc2c(c1)SCC(c1ccc(Cl)nc1Cl)=C2c1ccc(O[C@H]2CCN(CCCF)C2)cc1 [Example 50, 3-(2,6-dichloro-3-pyridyl)-4-[4-[(3S)-1-(3-fluoropropyl)pyrrolidin-3-yl]oxyphenyl]-2H-thiochromen-7-ol]
IC50 [1]: 72 nM | IC50 [2]: 1550 nM | IC50 [3]: 1170 nM | IC50 ([4]; MCF7, 168 h): 0.6 nM | IC50 ([5]; MCF7, 168 h): 7 nM | IC50 ([6]; MCF7, 168 h): 2 nM | DC50 [7]: 0.2 nM | % Degradation at 3 μM [7]: 84%

O=C1Cc2cc(C3=C(c4ccc(O[C@H]5CCN(CCCF)C5)cc4)c4ccc(O)cc4SC3)ccc2N1 [Example 51, 5-[4-[4-[(3S)-1-(3-fluoropropyl)pyrrolidin-3-yl]oxyphenyl]-7-hydroxy-2H-thiochromen-3-yl]indolin-2-one]
IC50 [1]: 350 nM | IC50 [2]: > 4000 nM | IC50 [3]: 3600 nM | IC50 ([4]; MCF7, 168 h): 91 nM | IC50 ([5]; MCF7, 168 h): 230 nM | IC50 ([6]; MCF7, 168 h): 148 nM | DC50 [7]: 12 nM | % Degradation at 3 μM [7]: 85%

CC(C)(C)c1ccc(C2=C(c3ccc(O[C@H]4CCN(CCCF)C4)cc3)c3ccc(O)cc3SC2)cc1 [Example 52, 3-(4-tert-butylphenyl)-4-[4-[(3S)-1-(3-fluoropropyl)pyrrolidin-3-yl]oxyphenyl]-2H-thiochromen-7-ol]
IC50 [1]: 351 nM | IC50 [2]: > 4000 nM | IC50 [3]: 2910 nM | IC50 ([4]; MCF7, 168 h): 2 nM | IC50 ([5]; MCF7, 168 h): 41 nM | IC50 ([6]; MCF7, 168 h): 3 nM | DC50 [7]: 1 nM | % Degradation at 3 μM [7]: 84%

CCOc1nccc(C2=C(c3ccc(O[C@H]4CCN(CCCF)C4)cc3)c3ccc(O)cc3SC2)c1Cl [Example 53, 3-(3-chloro-2-ethoxy-4-pyridyl)-4-[4-[(3S)-1-(3-fluoropropyl)pyrrolidin-3-yl]oxyphenyl]-2H-thiochromen-7-ol]
IC50 [1]: 2 nM | IC50 [2]: 36 nM | IC50 [3]: 25 nM | IC50 ([4]; MCF7, 168 h): 0.2 nM | IC50 ([5]; MCF7, 168 h): 5 nM | IC50 ([6]; MCF7, 168 h): 0.2 nM | DC50 [7]: 0.2 nM | % Degradation at 3 μM [7]: 84%

Oc1ccc2c(c1)SCC(c1ccc(OC(F)(F)F)cc1)=C2c1ccc(O[C@H]2CCN(CCCF)C2)cc1 [Example 54, 4-[4-[(3S)-1-(3-fluoropropyl)pyrrolidin-3-yl]oxyphenyl]-3-[4-(trifluoromethoxy)phenyl]-2H-thiochromen-7-ol]
IC50 [1]: 246 nM | IC50 [2]: 3030 nM | IC50 [3]: 2640 nM | IC50 ([4]; MCF7, 168 h): 3 nM | IC50 ([5]; MCF7, 168 h): 21 nM | IC50 ([6]; MCF7, 168 h): 3 nM | DC50 [7]: 1 nM | % Degradation at 3 μM [7]: 74%
